We go through 1 compound from ChEMBL document CHEMBL4354805, “Discovery of MK-8719, a Potent O-GlcNAcase Inhibitor as a Potential Treatment for Tauopathies” (J Med Chem, 2019).

pEC50, pKi: −log10 of the molar value.

In general, pEC50 refers to −log10 of the EC50, conventionally taken in molar units. As a reminder, the pKi is the Ki on a negative log10 scale, so that one unit is a factor of ten. A word on the half-life: it is the time in which the quantity being followed falls by half. As a reminder, the bioavailability is dose-corrected exposure relative to a reference, in per cent. In general, inhibition refers to the relative decrease from the control value, in per cent.

Data set [1] can be described thus: AUC (0 to 24 hrs) in rat brain at 10 mg/kg, po measured upto 24 hrs. Also noted: dose 10 mg/kg, time < 24 hr, route oral. It counts as ADME, organism-based. The settings on record: in vivo.
Data set [2] is described as follows: Fraction unbound in human plasma at 2.5 uM by equilibrium dialysis. It counts as ADME, cell-free. Background: In equilibrium dialysis only unbound substance equilibrates across the membrane.
A further data set deals with T1, Protein O-GlcNAcase (Rattus norvegicus, UniProt Q8VIJ5).
T1 sequence (Q8VIJ5 whole entry): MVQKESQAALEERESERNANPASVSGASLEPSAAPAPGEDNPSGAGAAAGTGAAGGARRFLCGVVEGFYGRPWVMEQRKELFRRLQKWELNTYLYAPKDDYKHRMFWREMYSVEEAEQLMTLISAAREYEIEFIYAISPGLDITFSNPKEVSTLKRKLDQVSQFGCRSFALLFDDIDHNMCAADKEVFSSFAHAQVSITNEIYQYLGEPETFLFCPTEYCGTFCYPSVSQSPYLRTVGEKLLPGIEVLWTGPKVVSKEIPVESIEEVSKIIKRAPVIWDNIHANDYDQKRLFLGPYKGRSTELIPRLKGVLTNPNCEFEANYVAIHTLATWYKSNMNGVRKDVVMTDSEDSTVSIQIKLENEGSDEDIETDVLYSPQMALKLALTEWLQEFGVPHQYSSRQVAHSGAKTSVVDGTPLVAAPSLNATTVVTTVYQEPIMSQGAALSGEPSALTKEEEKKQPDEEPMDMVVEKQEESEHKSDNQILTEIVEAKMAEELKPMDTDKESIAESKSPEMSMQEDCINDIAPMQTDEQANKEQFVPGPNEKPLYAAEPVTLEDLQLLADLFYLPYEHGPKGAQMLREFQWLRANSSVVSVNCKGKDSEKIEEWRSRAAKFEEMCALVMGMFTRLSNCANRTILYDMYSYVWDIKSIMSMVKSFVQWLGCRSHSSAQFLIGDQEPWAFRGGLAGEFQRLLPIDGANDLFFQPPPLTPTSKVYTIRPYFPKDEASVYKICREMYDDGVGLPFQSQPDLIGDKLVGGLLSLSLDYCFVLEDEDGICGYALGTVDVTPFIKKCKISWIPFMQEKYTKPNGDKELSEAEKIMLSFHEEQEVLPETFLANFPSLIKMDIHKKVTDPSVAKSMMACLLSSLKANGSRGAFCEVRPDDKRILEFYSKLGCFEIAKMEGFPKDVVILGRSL
Nature of the data set: Inhibition of OGA in rat PC12 cells assessed as OGlcNAcylated protein level incubated for 24 hrs by ELISA. Format: cell-based. On the technique in general: In an ELISA, binding on a coated surface is turned into a signal by an enzyme label.

Data set [3] concerns the target T2, Beta-hexosaminidase subunit beta (Homo sapiens, UniProt P07686).
T2 sequence (P07686 whole entry): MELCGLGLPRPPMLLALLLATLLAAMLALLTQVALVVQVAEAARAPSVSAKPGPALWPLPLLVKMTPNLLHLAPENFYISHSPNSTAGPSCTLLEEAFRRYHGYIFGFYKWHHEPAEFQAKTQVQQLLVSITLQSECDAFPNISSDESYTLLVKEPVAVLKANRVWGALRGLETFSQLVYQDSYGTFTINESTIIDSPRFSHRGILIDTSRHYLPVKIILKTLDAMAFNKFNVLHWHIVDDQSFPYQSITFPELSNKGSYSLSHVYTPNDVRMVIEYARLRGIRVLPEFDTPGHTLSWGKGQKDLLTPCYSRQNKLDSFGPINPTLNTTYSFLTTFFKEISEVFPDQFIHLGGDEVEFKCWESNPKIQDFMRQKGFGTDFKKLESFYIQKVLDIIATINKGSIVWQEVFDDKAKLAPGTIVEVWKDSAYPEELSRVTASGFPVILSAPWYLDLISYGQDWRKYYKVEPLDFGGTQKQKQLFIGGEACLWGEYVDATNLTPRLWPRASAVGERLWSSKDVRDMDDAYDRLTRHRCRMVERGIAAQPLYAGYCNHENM
Nature of the data set: Inhibition of human beta hexosaminidase assessed as inhibitory constant using 4-methylumbelliferyl N-acetyl-beta-D-glucosaminide dihydrate as substrate measured every 60 sec for 45 mins by fluorescence spectrophotometry.

The nature of data set [4]: AUCN in Wistar Han rat at 10 mg/kg, po. It counts as ADME, organism-based. The settings on record: in vivo.
A short description of data set [5]: Half life in Wistar Han rat at 2 mg/kg, iv. It counts as ADME, organism-based. The settings on record: in vivo.
Data set [6] in a line: Volume of distribution at steady state in Wistar Han rat at 2 mg/kg, iv or 10 mg/kg, po. The settings on record: in vivo, read-out: Vdss. Format: ADME, organism-based.
The nature of data set [7]: Ratio of drug uptake in rat brain to plasma at 3 mg/kg, po measured after 8 hrs. It counts as ADME, organism-based. The settings on record: read-out: BPR.
Data set [8] in a line: AUCN in Beagle dog at 3 mg/kg, po. Format: ADME, organism-based, Canis lupus familiaris. The following applies: in vivo.
The nature of data set [9]: Fraction unbound in rhesus monkey plasma at 1 uM by equilibrium dialysis. It counts as ADME, cell-free, Macaca mulatta.
Data set [10] in a line: Oral bioavailability in rhesus monkey at 3 mg/kg. The following applies: in vivo. It counts as ADME, organism-based, Macaca mulatta.
A short description of data set [11]: Protein binding in rat plasma. It counts as ADME, cell-free. The following applies: read-out: PPB.
The nature of data set [12]: Protein binding in monkey plasma. It counts as ADME, cell-free, Macaca mulatta. The settings on record: rhesus monkey, read-out: PPB.
The nature of data set [13]: Ratio of drug level in rat blood to plasma. Format: ADME, cell-free. The settings on record: whole blood.
Data set [14] is described as follows: Ratio of drug level in dog blood to plasma. It counts as ADME, cell-free, Canis lupus familiaris. The settings on record: whole blood.
Data set [15] is described as follows: Stability in rat hepatocytes assessed as parent compound remaining at 10 uM incubated for 120 mins. It counts as ADME, cell-based, Hepatocyte. The following applies: read-out: Stability.
Data set [16] can be described thus: Stability in human hepatocytes assessed as parent compound remaining at 10 uM incubated for 120 mins. It counts as ADME, cell-based, Hepatocyte. The settings on record: read-out: Stability.
The target of another data set is IKr (KCNH2) (Homo sapiens, UniProt Q12809). Nature of the data set: Inhibition of IKr (unknown origin) at 30 uM.
Another data set deals with T3, IKs (KCNQ1) (Homo sapiens, UniProt P51787).
T3 sequence (P51787 whole entry): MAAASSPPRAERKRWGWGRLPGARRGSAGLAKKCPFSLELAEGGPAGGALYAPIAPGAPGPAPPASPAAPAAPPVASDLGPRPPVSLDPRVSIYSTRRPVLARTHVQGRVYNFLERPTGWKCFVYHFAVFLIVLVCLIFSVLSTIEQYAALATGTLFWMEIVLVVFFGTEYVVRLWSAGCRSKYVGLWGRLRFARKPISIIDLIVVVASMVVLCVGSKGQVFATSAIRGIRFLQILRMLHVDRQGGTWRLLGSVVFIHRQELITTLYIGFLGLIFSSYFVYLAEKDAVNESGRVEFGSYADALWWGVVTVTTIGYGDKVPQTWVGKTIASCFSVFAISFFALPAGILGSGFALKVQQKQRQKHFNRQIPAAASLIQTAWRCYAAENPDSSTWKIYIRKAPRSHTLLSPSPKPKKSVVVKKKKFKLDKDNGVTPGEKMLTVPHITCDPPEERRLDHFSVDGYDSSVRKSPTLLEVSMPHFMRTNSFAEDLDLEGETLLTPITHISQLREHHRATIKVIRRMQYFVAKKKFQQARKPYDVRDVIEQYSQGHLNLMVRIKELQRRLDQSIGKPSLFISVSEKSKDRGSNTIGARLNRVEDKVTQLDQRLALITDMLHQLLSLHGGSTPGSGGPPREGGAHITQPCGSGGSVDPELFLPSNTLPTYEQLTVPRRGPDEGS
In words: Inhibition of IKs (unknown origin) at 30 uM.

In another data set the test system is Canis familiaris. Nature of the data set: Hemodynamic activity in telemetered dog assessed as change in EKG parameter at 300 mg/kg, po. Format: ADME, organism-based, Canis lupus familiaris. The settings on record: in vivo.

Sequence of IKr (KCNH2) (Q12809 whole entry): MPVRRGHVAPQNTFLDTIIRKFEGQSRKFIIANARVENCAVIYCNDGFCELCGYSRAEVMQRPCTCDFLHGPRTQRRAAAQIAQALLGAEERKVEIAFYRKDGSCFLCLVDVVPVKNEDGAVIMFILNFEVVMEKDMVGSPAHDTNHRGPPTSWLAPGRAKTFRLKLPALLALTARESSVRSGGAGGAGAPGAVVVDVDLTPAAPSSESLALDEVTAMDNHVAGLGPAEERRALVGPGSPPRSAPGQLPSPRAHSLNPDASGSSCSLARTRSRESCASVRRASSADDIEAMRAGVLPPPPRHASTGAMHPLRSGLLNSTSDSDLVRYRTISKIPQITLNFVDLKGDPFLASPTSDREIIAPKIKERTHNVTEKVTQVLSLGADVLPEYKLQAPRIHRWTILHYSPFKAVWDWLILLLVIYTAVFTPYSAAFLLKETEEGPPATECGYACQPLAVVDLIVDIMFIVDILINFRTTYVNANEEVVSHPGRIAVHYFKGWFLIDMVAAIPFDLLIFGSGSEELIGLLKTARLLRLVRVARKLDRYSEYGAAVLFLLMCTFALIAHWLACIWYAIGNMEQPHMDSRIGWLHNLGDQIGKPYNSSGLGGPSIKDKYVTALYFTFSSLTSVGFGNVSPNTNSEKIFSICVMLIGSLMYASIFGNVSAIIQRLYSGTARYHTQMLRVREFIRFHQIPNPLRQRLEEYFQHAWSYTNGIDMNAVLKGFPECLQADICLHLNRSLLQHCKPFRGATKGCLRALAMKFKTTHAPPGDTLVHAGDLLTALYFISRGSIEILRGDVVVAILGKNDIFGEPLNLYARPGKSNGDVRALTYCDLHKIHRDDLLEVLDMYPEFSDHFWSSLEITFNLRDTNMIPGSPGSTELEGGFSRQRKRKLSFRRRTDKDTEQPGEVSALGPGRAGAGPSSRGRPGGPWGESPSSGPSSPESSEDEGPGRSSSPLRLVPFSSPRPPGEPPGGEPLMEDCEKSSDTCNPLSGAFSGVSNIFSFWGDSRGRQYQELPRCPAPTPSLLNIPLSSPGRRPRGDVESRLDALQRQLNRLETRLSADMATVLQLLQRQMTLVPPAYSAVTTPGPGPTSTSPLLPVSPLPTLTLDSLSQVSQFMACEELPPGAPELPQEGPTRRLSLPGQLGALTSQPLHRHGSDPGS

In data set [1], `CCNC1=N[C@@H]2[C@@H](O)[C@H](O)[C@@H](C(F)F)O[C@@H]2S1` displayed an AUC of 9.64 nM·h/g. The same compound displayed a fraction unbound at 2.5 µM in [2] of 0.99. For the same compound, at Protein O-GlcNAcase, the negative logarithm of the EC50 (pEC50) was 7.28. Further, the negative logarithm of the Ki (pKi) in data set [3] is < 5.00. Also, the AUC/dose in data set [4] amounted to 1.4 µM·kg·h/mg; in data set [8] it was 14.2 µM·kg·h/mg. The half-life in data set [5] is 1.9 h. Further, the Vd in data set [6] came out at 3.7 L/kg. Further, the Kp at 8 h in data set [7] stood at 1.84. Besides, the fraction unbound at 1 µM in data set [9] was > 0.99. This compound also yielded a bioavailability in data set [10] of 9%. Further, the fraction unbound in data set [11] and in data set [12] was > 0.95 each time. In addition, the blood plasma ratio in data set [13] and in [14] was 0.9 to 1.1 throughout. For the same compound, the remaining at 2 h, 10 µM in data set [15] was 96%; in data set [16] it was 90%. The inhibition at 30 µM on IKr (KCNH2) and at IKs (KCNQ1) was < 50% in each case. Besides, the Activity entry in the data set with Canis familiaris is “Non-Toxic”.
